Results as given in patent US12427200B2 (priority 2019, dated 2025).
Where “and” joins values, the source holds several entries; their conditions need not be identical. Identical values can stand only once. Like-named read-outs stand apart in the source and are kept apart here.

Columns and labels:
[1] = system: H1N1 WT (A/California/12/2012); format: cell-based, Influenza A virus
[2] = system: neuraminidase of live influenza A (H3N2) viruses; assay: biochemical; set-up: species or system Influenza A virus; settings: read-out: neuraminidase inhibition (median IC50)
[3] = system: B/Brisbane/60/2008; set-up: species or system BALB/c mice; settings: mouse, in vivo
[4] = system: influenza A/CA/07/2009 (H1N1) pdm; format: cell-based, Influenza A virus
[5] = system: influenza A/Puerto Rico/8/1934 (H1N1); set-up: species or system BALB/c mice; settings: mouse, in vivo
[6] = system: A/PR/8/34 (H1N1); set-up: species or system BALB/c mice; settings: mouse, in vivo
[7] = system: neuraminidase of influenza B viruses; format: biochemical; settings: read-out: neuraminidase inhibition (median IC50)
[8] = system: A/Indonesia/5/2005 (H5N1, clade 2.1); format: cell-based, Influenza A virus
[9] = system: INFV B (B/Brisbane); assay: microbe, parasite or virus in culture; format: cell-based, Influenza B virus; settings: read-out: EC50 vs INFV B
[10] = system: A/turkey/Turkey/1/2005 (H5N1, clade 2.2); format: cell-based, Influenza A virus
[11] = system: A/Puerto Rico/8/1934 (H1N1); settings: mouse, in vivo
[12] = system: INFV A (A/CA/09 H1N1); assay: microbe, parasite or virus in culture; format: cell-based, Influenza A virus; settings: read-out: EC50 vs INFV A
[13] = system: H3N2 WT (A/Washington/12/2007); format: cell-based, Influenza A virus
[14] = system: H7N9 isolate (high path influenza A); format: cell-based, Influenza A virus
[15] = system: influenza A/CA/07/2009; set-up: species or system BALB/c mice; settings: mouse, in vivo, po, 5 mg/kg
[16] = system: influenza A/PR/8/1934; set-up: species or system BALB/c mice; settings: mouse, in vivo; for Log reduction PFU/g / Viral burden PFU/g: po
[17] = system: influenza A H3N2 strains; set-up: species or system Influenza A virus; settings: read-out: cell-based cytopathic effect assay (median EC50)
[18] = system: A/Puerto Rico/08/1934 (H1N1), PR8; format: in vivo, mouse; settings: 10 days
[19] = system: A/Texas/36/91 (H1N1); settings: mouse, in vivo
[20] = system: lung cytokines; set-up: species or system BALB/c mice; settings: mouse, in vivo, po, 5 mg/kg
[21] = system: A/CA/12/12 (H1N1); set-up: species or system BALB/c mice; settings: mouse, in vivo
[22] = system: A/Texas/36/91 (H1N1); set-up: species or system BALB/c mice; settings: mouse, in vivo
[23] = system: influenza B strains; set-up: species or system Influenza B virus; settings: read-out: cell-based cytopathic effect assay (median EC50)
[24] = system: A/Vietnam/1203/2004 (H5N1); set-up: species or system BALB/c mice; settings: mouse, in vivo
[25] = system: A/Anhui/01/2013 (H7N9); format: cell-based, Influenza A virus
[26] = system: influenza A H1N1 strains; set-up: species or system Influenza A virus; settings: read-out: cell-based cytopathic effect assay (median EC50)
[27] = system: influenza A/WSN/1933; format: cell-based, Influenza A virus
[28] = system: A/Netherlands/602/2009 (H1N1); format: cell-based, Influenza A virus
[29] = system: INF-γ, TNF-α, IL-6, MIP-1α, MCP-1 in lung homogenate; set-up: species or system BALB/c mice; settings: mouse, in vivo
[30] = system: lung cytokines; set-up: species or system BALB/c mice; settings: mouse, in vivo, po
[31] = system: H5N1 isolates (high path influenza A); format: cell-based, Influenza A virus
[32] = system: influenza A/Ca/07/2009 (H1N1)pdm; format: cell-based, Influenza A virus
[33] = system: A/Puerto Rico/8/1934 (H1N1); set-up: species or system BALB/c mice; settings: mouse, in vivo
[34] = system: influenza B; format: cell-based, Influenza B virus
[35] = system: neuraminidase of live influenza A (H1N1) viruses; assay: biochemical; format: biochemical, Influenza A virus; settings: read-out: neuraminidase inhibition (median IC50)
[36] = system: A/Hong Kong/156/1997 (H5N1, clade 0); format: cell-based, Influenza A virus
[37] = system: B (B/Malaysia/2506/2004); format: cell-based, Influenza B virus
[38] = system: H3N2 A/Hong Kong/1/68; format: in vivo, mouse; settings: 15 days
[39] = molecular target: neuraminidase of influenza B viruses (Influenza B virus, UniProt A0A1X9RX69); format: biochemical
[40] = molecular target: neuraminidase of live influenza A (H1N1) viruses (Influenza A virus, UniProt P03468); assay: biochemical; format: biochemical
[41] = molecular target: neuraminidase of live influenza A (H1N1) viruses (Influenza A virus, UniProt C3W6G3); assay: biochemical; format: biochemical
[42] = system: Influenza B/Brisbane/60/2008; assay: microbe, parasite or virus in culture; settings: MDCK, read-out: EC50, B/Brisbane/60/2008 (Victoria lineage)
[43] = system: Influenza A/Anhui/1/2013 (H7N9); assay: microbe, parasite or virus in culture; settings: H7N9, MDCK
[44] = system: Influenza B/Florida/4/2006; assay: microbe, parasite or virus in culture; settings: MDCK
[45] = read-out: IC50 for viral replication
[46] = read-out: microneutralization (IC50)

## CCOC(=O)C1=C[C@@H](OC(CC)CC)[C@H](NC(C)=O)[C@@H](N)C1 [Oseltamivir, oseltamivir]
[1]
  EC50: […]
[2]
  IC50: […]
[3]
  Survival: […]
[4]
  EC50: 18.5 nM and 34.2 nM
[5]
  Log reduction (PFU/mL): […]
[6]
  Survival: 0%
[7]
  IC50: […]
[8]
  EC100 (CPE in MDCK cells): […]
[9]
  EC50: 1060 nM
[10]
  EC100 (CPE in MDCK cells): ~125 to 250 nM
[11]
  loss of body weight: 14%
  protection (survival): fully protected
[12]
  EC50: 390 nM
[13]
  EC50: 29.6 nM
[14]; [45]
  IC50: ≥ 300 nM
[14]; [46]
  IC50: > 300 nM
[15]
  Viral burden PFU/g: 2.05E+07 PFU/g
[16]
  Viral load reduction: […]
[16]; 5 mg/kg
  Log reduction PFU/g: 0.83
  Viral burden PFU/g: 2.86E+06 PFU/g
[16]; 50 mg/kg
  Log reduction PFU/g: 0.86
  Viral burden PFU/g: 2.66E+06 PFU/g
[17]
  EC50: 8180 nM
[18]
  % Survival: 20%
[19]
  % Survival (Day 14): […]
[20]
  IL-6: 714.2 pg/mL
[21]
  Protection from lethal challenge: unprotective
[22]
  Protection: no protection
[22]; 200 mg/kg
  Survival: […]
[23]
  EC50: 758 nM
[24]
  Protection: 90%
[25]
  EC100 (CPE in MDCK cells): […]
[26]
  EC50: […]
[27]; read-out: EC50, MOI 0.001
  EC50: 3910 nM
[27]; read-out: EC50, MOI 0.01
  EC50: […]
[27]; read-out: EC50, MOI 0.1
  EC50: […]
[27]; read-out: EC50, MOI 1
  EC50: […]
[27]; read-out: EC50, MOI 10
  EC50: […]
[28]
  EC100 (CPE in MDCK cells): […]
[28]; [45]
  IC50: ≥ 300 nM
[28]; [46]
  IC50: > 300 nM
[29]
  IL-6 lung cytokine level: 1.8 and 1.4
[30]; 5 mg/kg
  IL-6: 714.2 pg/mL
  MCP-1: 5301.6 pg/mL
[30]; 50 mg/kg
  KC: 2705.5 pg/mL
  MCP-1: 4572.8 pg/mL
  MIP-1α: 948.2 pg/mL
  TNF-α: 501.7 pg/mL
[31]; [45]
  IC50: ≥ 300 nM and 169 nM
[31]; [46]
  IC50: 169 nM and > 300 nM
[32]; read-out: EC50, MOI 0.1
  EC50: […]
[32]; read-out: EC50, MOI 1
  EC50: […]
[33]
  Survival: 0%
[33]; 200 mg/kg
  Survival: […]
[34]; read-out: CPE against influenza B, EC50, B/Brisbane
  EC50: 969 nM
[34]; read-out: CPE against influenza B, EC50, B/Florida
  EC50: […]
[34]; read-out: CPE against influenza B, EC50, B/Malaysia
  EC50: 5690 nM
[35]
  IC50: […]
[36]
  EC100 (CPE in MDCK cells): […]
[37]
  EC50: […]
[38]
  % Survival: […]

## C#CCOCCOCCOCCOCCN(CCOCCN(C)C(=O)O[C@@H]([C@@H]1OC(C(=O)O)=C[C@H](NC(=N)N)[C@H]1NC(C)=O)[C@H](O)CO)CCOCCN(C)C(=O)O[C@@H]([C@@H]1OC(C(=O)O)=C[C@H](NC(=N)N)[C@H]1NC(C)=O)[C@H](O)CO [Int-83]
[39]
  IC50: 125 nM
[40]
  IC50: 4.23 nM
[41]
  IC50: 28.6 nM

## NC(=O)c1ncn([C@@H]2O[C@H](CO)[C@@H](O)[C@H]2O)n1 [ribavirin]
[42]
  EC50: 3300 nM
[43]
  EC50: 14000 nM
[43]; read-out: EC50, A/Anhui/1/2013 (H7N9) (zoonotic avian)
  EC50: 14000 nM
[44]
  EC50: 3250 nM
[44]; read-out: EC50, B/Florida/4/2006 (Yamagata lineage)
  EC50: 3250 nM
